Molecular target: T1, SMYD3 (Homo sapiens, UniProt Q9H7B4)
T1 sequence (Q9H7B4 1-428): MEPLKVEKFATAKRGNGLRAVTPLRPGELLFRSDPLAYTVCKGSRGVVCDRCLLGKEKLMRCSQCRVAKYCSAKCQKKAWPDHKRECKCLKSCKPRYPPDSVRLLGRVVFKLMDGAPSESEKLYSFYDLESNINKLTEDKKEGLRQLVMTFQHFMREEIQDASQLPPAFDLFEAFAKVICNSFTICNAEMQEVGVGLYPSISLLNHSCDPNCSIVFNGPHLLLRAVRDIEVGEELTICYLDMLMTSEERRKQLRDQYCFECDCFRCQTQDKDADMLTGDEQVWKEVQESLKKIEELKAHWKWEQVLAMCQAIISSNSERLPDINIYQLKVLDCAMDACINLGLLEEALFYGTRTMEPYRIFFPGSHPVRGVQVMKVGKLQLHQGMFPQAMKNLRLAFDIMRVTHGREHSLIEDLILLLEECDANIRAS
Test: SMYD3 biochemical assay (MTase-Glo, MAP3K2 peptide substrate)
Settings: for IC50: Table 3, MTase assay, MAP3K2 peptide substrate, read-out: IC50
How it was run: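 Methylation of MAP3K2 peptide (10 µM final) with SAM (1.0 µM final) by SMYD3, 30 min at room temperature. SAH formed was enzymatically converted to ATP and detected as luminescence with MTase-Glo reagents; IC50 by non-linear regression.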

Structure (SMILES) | IC50 [nM] | activity against SMYD3
CCCOC(=O)N1CCN(C(=O)c2ccc3c(Cl)cc(-c4ccc([N+](=O)[O-])cc4)nc3c2)CC1 [B072, Propyl 4-(4-chloro-2-(4-nitrophenyl)quinoline-7-carbonyl)piperazine-1-carboxylate] | 1400 | –
CCCCOC(=O)N1C2CCCC1CN(C(=O)c1ccc3c(Cl)c4c(nc3c1)CCCC4)C2 [A041, Butyl 3-(9-chloro-5,6,7,8-tetrahydroacridine-3-carbonyl)-3,9-diazabicyclo[3.3.1]nonane-9-carboxylate] | 260 | –
CCCOC(=O)N1CCN(C(=O)c2ccc3c(Cl)c(C)c(-c4ccc(C(N)=O)cc4)nc3c2)CC1 [B092, Propyl 4-(2-(4-carbamoylphenyl)-4-chloro-3-methylquinoline-7-carbonyl)piperazine-1-carboxylate] | 250 | –
CCCOC(=O)N1CCN(C(=O)c2ccc3c(Cl)c4c(nc3c2)CCCC4)CC1C (stereo not shown) [A018, Propyl 4-(9-chloro-5,6,7,8-tetrahydroacridine-3-carbonyl)-2-methylpiperazine-1-carboxylate] | 390 | –
CCCOC(=O)N1CCN(C(=O)c2ccc3c(Cl)cc(-c4cccc5[nH]ncc45)nc3c2)CC1 [B141, Propyl 4-(4-chloro-2-(1H-indazol-4-yl)quinoline-7-carbonyl)piperazine-1-carboxylate] | 630 | –
CCCOC(=O)N1CCN(C(=O)c2ccc3c(Cl)cc(-c4cccc(N5CCOCC5)c4)nc3c2)C[C@H]1C [B069, Propyl (R)-4-(4-chloro-2-(3-morphohnophenyl)quinoline-7-carbonyl)-2-methylpiperazine-1-carboxylate] | 240 | –
CCCOC(=O)N1CCN(C(=O)c2ccc3c(Cl)c(C)c(-c4cccc(F)c4F)nc3c2)CC1 [B030, Propyl 4-(4-chloro-2-(2,3-difluorophenyl)-3-methylquinoline-7-carbonyl)piperazine-1-carboxylate] | 5800 | –
CCCOC(=O)N1CCN(C(=O)c2ccc3c(Cl)c(C#N)c(C)nc3c2)CC1 [C006, Propyl 4-(4-chloro-3-cyano-2-methylquinoline-7-carbonyl)piperazine-1-carboxylate] | 2800 | –
CCCOC(=O)N1CCN(C(=O)c2ccc3c(Cl)cc(Cc4ccccc4)nc3c2)CC1 [B009, Propyl 4-(2-benzyl-4-chloroquinoline-7-carbonyl)piperazine-1-carboxylate] | 3300 | –
CCCOC(=O)N1CCN(C(=O)c2ccc3c(Cl)c4c(nc3c2)CCCC4)CC1 [A001, Propyl 4-(9-chloro-5,6,7,8-tetrahydroacridine-3-carbonyl)piperazine-1-carboxylate] | 400 | –
CCCOC(=O)N1CCN(C(=O)c2ccc3c(Cl)c4c(nc3c2)CCCC4)CC1(C)C [A035, Propyl 4-(9-chloro-5,6,7,8-tetrahydroacridine-3-carbonyl)-2,2-dimethylpiperazine-1-carboxylate] | 8200 | –
NC(=O)C1CCN(CC(=O)Nc2ccc(Br)cc2)CC1 [BCI-121, reference compound] | – | inactive
CCCOC(=O)N1CCN(C(=O)c2ccc3c(Cl)cc(-c4ccc(C#N)c(C)c4)nc3c2)CC1 [B101, Propyl 4-(4-chloro-2-(4-cyano-3-methylphenyl)quinoline-7-carbonyl)piperazine-1-carboxylate] | 1800 | –
CCCOC(=O)N1CCN(C(=O)c2ccc3c(Cl)c4c(nc3c2)CCCC4)CC1COC(=O)C(C)C (stereo not shown) [A054, Propyl 4-(9-chloro-5,6,7,8-tetrahydroacridine-3-carbonyl)-2-((isobutyryloxy)methyl)piperazine-1-carboxylate] | 5200 | –
CCCOC(=O)N1CCN(C(=O)c2ccc3c(Cl)cc(-c4cccc(CN(C)C)c4)nc3c2)C[C@H]1C [B111, Propyl (R)-4-(4-chloro-2-(3-((dimethylamino)methyl)phenyl)quinoline-7-carbonyl)-2-methylpiperazine-1-carboxylate] | 220 | –
CCCOC(=O)N1CCN(C(=O)c2ccc3c(Cl)c4c(nc3c2)CCC(CC(=O)OC)C4)C[C@@H]1C (stereo partly drawn) [A062, Propyl (2S)-4-(9-chloro-7-(2-methoxy-2-oxoethyl)-5,6,7,8-tetrahydroacridine-3-carbonyl)-2-methylpiperazine-1-carboxylate] | 210 | –
CCCOC(=O)N1CCN(C(=O)c2ccc3c(Cl)cc(-c4cc(C)n(C)c4CN)nc3c2)CC1 [B227, Propyl 4-(2-(2-(aminomethyl)-1,5-dimethyl-1H-pyrrol-3-yl)-4-chloroquinoline-7-carbonyl)piperazine-1-carboxylate] | 770 | –

Further lines, results first:

IC50 [nM] | activity against SMYD3 | Structure (SMILES)
60 | – | CCCOC(=O)N1CCN(C(=O)c2ccc3c(Cl)cc(-c4ccn(C)c4)nc3c2)C[C@@H]1C [B193, Propyl (S)-4-(4-chloro-2-(1-methyl-1H-pyrrol-3-yl)quinoline-7-carbonyl)-2-methylpiperazine-1-carboxylate]
120 | – | CCCOC(=O)N1CCN(C(=O)c2ccc3c(Cl)c4c(nc3c2)CC(CCN(C)C)CC4)[C@H](C)C1 (stereo partly drawn) [A120, Propyl (3R)-4-(9-chloro-6-(2-(dimethylamino)ethyl)-5,6,7,8-tetrahydroacridine-3-carbonyl)-3-methylpiperazine-1-carboxylate]
41 | – | CCCOC(=O)N1CCN(C(=O)c2ccc3c(Cl)c4c(nc3c2)CC(c2ccc(F)cn2)CC4)[C@H](C)C1 (stereo partly drawn) [A106, Propyl (3R)-4-(9-chloro-6-(5-fluoropyridin-2-yl)-5,6,7,8-tetrahydroacridine-3-carbonyl)-3-methylpiperazine-1-carboxylate]
20 | – | CCCOC(=O)N1CCN(C(=O)c2ccc3c(Cl)cc(-c4cnn(C5CCCC5)c4)nc3c2)C[C@@H]1C [B279, Propyl (S)-4-(4-chloro-2-(1-cyclopentyl-1H-pyrazol-4-yl)quinoline-7-carbonyl)-2-methylpiperazine-1-carboxylate]
47 | – | CCCOC(=O)N1CCN(C(=O)c2ccc3c(Cl)cc(-c4cccc(CN)c4)nc3c2)C[C@@H]1C [B145, Propyl (S)-4-(2-(3-(aminomethyl)phenyl)-4-chloroquinoline-7-carbonyl)-2-methylpiperazine-1-carboxylate]
77 | – | CCCOC(=O)N1CCN(C(=O)c2ccc3c(Cl)cc(-c4ccc(N5CCOCC5)cc4)nc3c2)C[C@H]1C [B090, Propyl (R)-4-(4-chloro-2-(4-morpholinophenyl)quinoline-7-carbonyl)-2-methylpiperazine-1-carboxylate]
91 | – | CCCOC(=O)N1CCN(C(=O)c2ccc3c(Cl)cc(-c4cccc(CN)c4)nc3c2)CC1 [B039, Propyl 4-(2-(3-(aminomethyl)phenyl)-4-chloroquinoline-7-carbonyl)piperazine-1-carboxylate]
120 | – | CCCOC(=O)N1CCN(C(=O)c2ccc3c(Cl)cc(-c4ccc(O)c(C)c4)nc3c2)CC1 [B202, Propyl 4-(4-chloro-2-(4-hydroxy-3-methylphenyl)quinoline-7-carbonyl)piperazine-1-carboxylate]
11 | – | CCCOC(=O)N1CCN(C(=O)c2ccc3c(Cl)cc(-c4ccc5c(cnn5C)c4)nc3c2)C[C@H]1C [B086, Propyl (R)-4-(4-chloro-2-(1-methyl-1H-indazol-5-yl)quinoline-7-carbonyl)-2-methylpiperazine-1-carboxylate]
200 | – | CCCOC(=O)N1CCN(C(=O)c2ccc3c(Cl)cc(-c4ccc(O)c(F)c4)nc3c2)[C@@H](C)C1 [B162, Propyl (S)-4-(4-chloro-2-(3-fluoro-4-hydroxyphenyl)quinoline-7-carbonyl)-3-methylpiperazine-1-carboxylate]
42 | – | CCCOC(=O)N1CCN(C(=O)c2ccc3c(Cl)c(C)c(-c4ccc(CN)cc4)nc3c2)CC1 [B093, Propyl 4-(2-(4-(aminomethyl)phenyl)-4-chloro-3-methylquinoline-7-carbonyl)piperazine-1-carboxylate]
110 | – | CCCOC(=O)N1CCN(C(=O)c2ccc3c(Cl)cc(-c4ccc(NC(C)=O)nc4)nc3c2)CC1 [B149, Propyl 4-(2-(6-acetamidopyridin-3-yl)-4-chloroquinoline-7-carbonyl)piperazine-1-carboxylate]
25 | – | Cn1ccc(-c2cc(Cl)c3ccc(C(=O)N4CCN(C(=O)c5cn(C6CC6)nn5)CC4)cc3n2)c1 [D003, (4-Chloro-2-(1-methyl-1H-pyrrol-3-yl)quinolin-7-yl)(4-(1-cyclopropyl-1H-1,2,3-triazole-4-carbonyl)piperazin-1-yl)methanone]
46 | – | CCCOC(=O)N1CCN(C(=O)c2ccc3c(Cl)cc(-c4ccc5[nH]c(C)nc5c4)nc3c2)CC1 [B222, Propyl 4-(4-chloro-2-(2-methyl-1H-benzo[d]imidazol-5-yl)quinoline-7-carbonyl)piperazine-1-carboxylate]
190 | – | CCCOC(=O)N1CCN(C(=O)c2ccc3c(Cl)cc(-c4ccccc4)nc3c2)[C@H](C)C1 [B015, Propyl (R)-4-(4-chloro-2-phenylquinoline-7-carbonyl)-3-methylpiperazine-1-carboxylate]
200 | – | CCCOC(=O)N1CCN(C(=O)c2ccc3c(Cl)cc(-c4ccc5oc(C)nc5c4)nc3c2)CC1 [B237, Propyl 4-(4-chloro-2-(2-methylbenzo[d]oxazol-5-yl)quinoline-7-carbonyl)piperazine-1-carboxylate]
100 | – | CCCOC(=O)N1CCN(C(=O)c2ccc3c(Cl)cc(-c4cccc(CN)c4)nc3c2)C[C@H]1C [B054, Propyl (R)-4-(2-(3-(aminomethyl)phenyl)-4-chloroquinoline-7-carbonyl)-2-methylpiperazine-1-carboxylate]

— patent US20190071416A1, “COMPOUNDS FOR TREATMENT OF CANCER AND EPIGENETICS” (Agency For Science, Technology and Research, priority 2015, published 2019)
